Where a chain is given by its changes, count along the chain named.

Results on 2 compounds are retold here after article PMC2095803 (Nucleic Acids Research, 2007).

Assay [1] has as its target Klenow(exo−) DNA polymerase (Escherichia coli, UniProt P00582, D355A/E357A). Briefly: PEP termination assay. The format is biochemical.
Assay [2] concerns the target AmpliTaqFS DNA polymerase (Thermus aquaticus, UniProt P19821, F667Y/G46D). Nature of the assay: PEP termination assay. The format is biochemical, Thermus aquaticus YT-1.
Assay [3] addresses T1, Therminator DNA polymerase (Thermococcus sp., UniProt Q56366, A485L/D141A/E143A).
T1 sequence (Q56366 1-775 D141A/E143A/A485L): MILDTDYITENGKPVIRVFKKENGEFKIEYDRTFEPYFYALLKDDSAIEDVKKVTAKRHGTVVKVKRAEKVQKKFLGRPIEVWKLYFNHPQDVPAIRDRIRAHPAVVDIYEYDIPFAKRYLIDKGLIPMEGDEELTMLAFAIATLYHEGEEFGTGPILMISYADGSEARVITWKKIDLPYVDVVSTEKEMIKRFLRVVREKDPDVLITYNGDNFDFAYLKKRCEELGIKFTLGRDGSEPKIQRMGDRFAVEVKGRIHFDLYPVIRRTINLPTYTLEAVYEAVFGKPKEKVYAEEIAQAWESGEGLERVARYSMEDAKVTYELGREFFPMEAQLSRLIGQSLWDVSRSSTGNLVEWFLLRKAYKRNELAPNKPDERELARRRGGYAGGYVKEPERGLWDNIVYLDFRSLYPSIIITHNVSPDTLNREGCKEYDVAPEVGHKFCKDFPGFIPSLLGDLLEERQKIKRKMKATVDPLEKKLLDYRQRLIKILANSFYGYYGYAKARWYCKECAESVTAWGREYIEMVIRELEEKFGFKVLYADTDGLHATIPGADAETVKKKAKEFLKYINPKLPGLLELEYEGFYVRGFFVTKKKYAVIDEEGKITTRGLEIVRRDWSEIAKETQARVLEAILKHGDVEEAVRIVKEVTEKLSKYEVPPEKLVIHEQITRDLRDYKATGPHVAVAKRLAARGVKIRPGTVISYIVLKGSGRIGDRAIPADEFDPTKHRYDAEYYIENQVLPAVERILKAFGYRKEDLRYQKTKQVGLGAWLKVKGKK
Briefly: PEP termination assay. It is filed as biochemical, Thermococcus species 9ºN-7.

Assay [4] addresses T2, Therminator II DNA polymerase (Thermococcus sp., UniProt Q56366, A485L/D141A/E143A/Y409V).
T2 sequence (Q56366 1-775 D141A/E143A/Y409V/A485L): T1 sequence (Q56366 1-775 D141A/E143A/A485L) with Y409V
Nature of the assay: PEP termination assay. It is filed as biochemical, Thermococcus species 9ºN-7.

Assay [5] deals with T3, DeepVent(exo−) DNA polymerase (Pyrococcus sp. GB-D, UniProt Q51334, D141A/E143A).
T3 sequence (Q51334 with tags, fused parts or gaps D141A/E143A): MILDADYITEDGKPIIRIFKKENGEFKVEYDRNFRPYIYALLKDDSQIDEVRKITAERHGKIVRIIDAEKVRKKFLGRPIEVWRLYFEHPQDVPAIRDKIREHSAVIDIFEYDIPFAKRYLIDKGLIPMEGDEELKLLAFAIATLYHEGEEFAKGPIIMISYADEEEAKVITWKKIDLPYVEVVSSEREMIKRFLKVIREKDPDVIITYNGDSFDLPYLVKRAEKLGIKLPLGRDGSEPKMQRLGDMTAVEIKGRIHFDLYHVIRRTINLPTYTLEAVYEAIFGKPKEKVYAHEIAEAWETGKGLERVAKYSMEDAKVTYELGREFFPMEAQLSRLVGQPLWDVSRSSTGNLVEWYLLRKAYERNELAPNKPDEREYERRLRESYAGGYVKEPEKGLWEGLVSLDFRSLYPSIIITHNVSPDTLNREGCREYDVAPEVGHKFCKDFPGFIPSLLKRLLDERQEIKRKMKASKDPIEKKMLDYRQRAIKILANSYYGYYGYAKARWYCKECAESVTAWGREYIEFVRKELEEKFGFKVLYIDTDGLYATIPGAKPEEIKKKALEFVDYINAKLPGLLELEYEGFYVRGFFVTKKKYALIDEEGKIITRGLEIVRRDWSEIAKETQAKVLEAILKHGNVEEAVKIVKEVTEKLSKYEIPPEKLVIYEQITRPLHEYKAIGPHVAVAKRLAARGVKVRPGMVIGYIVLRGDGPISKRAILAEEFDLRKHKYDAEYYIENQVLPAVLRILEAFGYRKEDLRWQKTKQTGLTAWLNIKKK
Nature of the assay: PEP termination assay. The format is biochemical, Pyrococcus species GB-D.

Another assay deals with AmpliTaqFS. Particulars: F667Y mutation in AmpliTaqFS; cited from earlier work.
[6] abbreviates: Klenow(exo−), 25× IC50, oligoTemplate-3.

Chain of AmpliTaqFS DNA polymerase (P19821 whole entry G46D/F667Y): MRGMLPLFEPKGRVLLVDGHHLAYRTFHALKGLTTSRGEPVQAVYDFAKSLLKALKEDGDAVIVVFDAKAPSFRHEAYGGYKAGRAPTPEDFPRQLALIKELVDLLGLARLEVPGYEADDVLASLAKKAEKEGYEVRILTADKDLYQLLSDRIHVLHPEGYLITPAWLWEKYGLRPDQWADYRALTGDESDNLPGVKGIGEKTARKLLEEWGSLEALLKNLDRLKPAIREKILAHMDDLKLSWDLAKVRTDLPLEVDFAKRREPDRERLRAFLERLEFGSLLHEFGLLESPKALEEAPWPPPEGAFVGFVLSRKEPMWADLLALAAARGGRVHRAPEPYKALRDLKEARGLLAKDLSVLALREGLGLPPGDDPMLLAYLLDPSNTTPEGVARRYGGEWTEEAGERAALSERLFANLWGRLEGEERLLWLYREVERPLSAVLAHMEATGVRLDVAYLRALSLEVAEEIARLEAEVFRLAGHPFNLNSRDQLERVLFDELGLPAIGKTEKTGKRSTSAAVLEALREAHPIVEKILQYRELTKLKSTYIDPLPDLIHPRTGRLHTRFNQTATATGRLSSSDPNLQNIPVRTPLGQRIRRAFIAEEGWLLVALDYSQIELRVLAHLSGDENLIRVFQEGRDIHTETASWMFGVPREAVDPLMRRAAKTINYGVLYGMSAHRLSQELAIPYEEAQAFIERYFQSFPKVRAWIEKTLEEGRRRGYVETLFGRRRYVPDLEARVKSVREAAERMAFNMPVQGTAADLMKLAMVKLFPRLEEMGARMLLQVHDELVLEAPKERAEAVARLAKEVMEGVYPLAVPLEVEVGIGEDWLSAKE

The term IC50 denotes the concentration needed to halve the response being measured. A lower IC50 goes with inhibition by little substance. For `O=[N+]([O-])c1ccccc1CNc1ncnc2c1ncn2[C@H]1C[C@H](O)[C@@H](COP(=O)(O)OP(=O)(O)OP(=O)(O)O)O1` [Compound IIIc, N^6-(2-Nitrobenzyl)-2’-deoxyadenosine-5’-triphosphate], the IC50 in assay [1] was 0.0043 µM; in assay [2], 0.35 µM; in assay [3], 0.0018 µM; in assay [4] it was 0.03 µM; in assay [5] it was 0.011 µM. For the same compound, in assay [1] (setting [6]), the “% 1st Base” value came to 76.1 ± 1.8%. In addition, the “% 2nd Base” value in assay [1] (setting [6]) turned out to be 6.2 ± 0.5%. Moreover, in assay [1] (setting [6]), the “% Primer” value amounted to 17.7 ± 2.2%.

For the compound `Nc1ncnc2c1ncn2[C@H]1CC[C@@H](COP(=O)(O)OP(=O)(O)OP(=O)(O)O)O1` [ddATP, 2′,3′-dideoxyadenosine triphosphate, reference compound], the “Ratio ddATP over dATP” value in the assay with AmpliTaqFS is on record as 0.59.
